Where two headings read alike, the source gives them in different places. Marks after values point to notes of the source that are not given here.
Columns and labels:
[1] = Reduction of nitroxides by excess ascorbate monitored by stopped-flow EPR; format: physicochemical; conditions: potassium phosphate buffer 0.1 M, pH 7.4, equilibrated with air, 21 °C; This work
Description: A 4-bore AquaX quartz cell (Bruker) inserted into the cavity was connected to a Bio-Logic MPS-51 stop-flow apparatus with three syringes (Bio-Logic, Claix, France) controlled by the Bio-Logic MPS software. […] The initial second-order reaction rate constant of the reaction of nitroxides with ascorbate, k0 values was derived from experimental results as previously described.

[2] = test system: rat liver microsomes (RLM); conditions: anaerobic; for EPR signal regenerated by reoxidation with potassium ferricyanide: ferricyanide 1 mM added to whole system after 30 min incubation (nitroxide 5: with simultaneous Clo 25 μM)
Description: Addition of NADPH to a final concentration of 1 mM started the reaction. Samples were mixed and transferred to glass microcapillary pipettes (50 μL, Hirschmann) that had been previously purged with N2.

[3] = cited from earlier work
[4] = test system: rat liver microsomes (RLM); assay: Aerobic incubation of nitroxides with rat liver microsomes and NADPH monitored by EPR; conditions: for Decay in 30 min (conversion by P450): RLM + NADPH; for Nitroxide recovered upon reoxidation with potassium ferricyanide: ferricyanide 1 mM added to whole system after 30 min incubation; for Initial rate of decrease, + Clo / Initial rate of decrease, + Clo (per P450): whole system + clotrimazole 25 μM; for Initial rate of decrease, + Clo / Initial rate of decrease, +DPI / Initial rate of decrease, -NADPH / Initial rate of decrease, -RLM / Initial rate of decrease, + Clo (per P450) / Initial rate of decrease, +DPI (per P450): nitroxide 100 µM; for Initial rate of decrease, +DPI / Initial rate of decrease, +DPI (per P450): whole system + diphenyliodonium chloride 100 μM; for Initial rate of decrease, WS / Initial rate of decrease, WS (per P450): whole system: nitroxide 100 µM + RLM + NADPH, pH 7.4, 21 °C; for Initial rate of decrease, -NADPH: without NADPH; for Initial rate of decrease, -RLM: without RLM
liver homogenates = test system: liver homogenates; parameters: method as in PMID 34641310; conditions: ref 29; cited from earlier work
[5] = reaction measured with ascorbate and glutathione mixtures
[6] = whole system + clotrimazole 25 μM, nitroxide 100 μM
[7] = whole system + diphenyliodonium chloride 100 μM, nitroxide 100 μM
[8] = whole system: nitroxide 100 μM + RLM + NADPH, pH 7.4, 21 °C

Row | Compound | Initial second-order reaction rate constant k0 for reduction by excess ascorbate [1] | EPR signal regenerated by reoxidation with potassium ferricyanide [2] | Initial second-order reaction rate constant k0 for reduction by excess ascorbate [3, 5] | Initial second-order reaction rate constant k0 for reduction by excess ascorbate ([3]; ref 42) | Nitroxide recovered upon reoxidation with potassium ferricyanide [4] | Initial rate of decrease, + Clo [4] | Initial rate of decrease, +DPI [4] | Initial rate of decrease, WS [4] | Initial rate of decrease, WS (per P450) [4] | Initial rate of decrease, -NADPH [4] | Initial rate of decrease, -RLM [4] | further results
1 | CCC1(CC)CC(C(=O)O)C(CC)(CC)N1[O] (centres unmarked) [Nitroxide 3, 3-carboxy-2,2,5,5-tetraethyl-1-pyrrolidinyloxyl] | 0.0011 ± 0.0002 M⁻¹ s⁻¹ | hardly detectable | 0.0011 ± 0.0002 ^a M^−1·s^−1 | 0.002 ± 0.001 M⁻¹ s⁻¹ | not the case | 0.0 ** nmol·min^−1·mg^−1 prot | 0.0 ** nmol·min^−1·mg^−1 prot | 1.8 ± 0.2 nmol·min^−1·mg^−1 prot | 0.46 ± 0.05 nmol·min^−1·nmol^−1 P450 | 0.0 ** nmol·min^−1·mg^−1 prot | 0.0 ** nmol·min^−1·mg^−1 prot | Initial second-order reaction rate constant k0 for reduction by excess ascorbate ([3]; ref 30): ≤0.001 M⁻¹ s⁻¹; Decay in 30 min (conversion by P450) [4]: 5–10%
2 | CC1(C)CC(C(=O)O)C(C)(C)N1[O] (centres unmarked) [Nitroxide 2, 3-carboxy-2,2,5,5-tetramethyl-1-pyrrolidinyloxyl] | 0.072 ± 0.003 M⁻¹ s⁻¹ | – | 0.060 ± 0.003 ^a M^−1·s^−1 | 0.079 ± 0.001 M⁻¹ s⁻¹ | 42% | 0.94 ± 0.09 nmol·min^−1·mg^−1 prot | 2.1 ± 0.3 nmol·min^−1·mg^−1 prot | 4.8 ± 0.8 nmol·min^−1·mg^−1 prot | 1.2 ± 0.1 nmol·min^−1·nmol^−1 P450 | 0.0 ** nmol·min^−1·mg^−1 prot | 0.0 ** nmol·min^−1·mg^−1 prot | Initial second-order reaction rate constant k0 for reduction by excess ascorbate ([3]; ref 70): 0.11 ± 0.01 M⁻¹ s⁻¹; Initial rate of decrease, + Clo (per P450) [4]: 0.24 ± 0.03 nmol·min^−1·nmol^−1 P450; Initial rate of decrease, +DPI (per P450) [4]: 0.54 ± 0.07 nmol·min^−1·nmol^−1 P450
3 | CCC1(CC)C=C(C(=O)O)C(CC)(CC)N1[O] [Nitroxide 4, 3-carboxy-2,2,5,5-tetrethyl-pyrrolinyloxyl] | 0.0077 ± 0.0009 M⁻¹ s⁻¹ | hardly detectable | 0.00122 ± 0.00003 ^a M^−1·s^−1 | – | not the case | 0.0 ** nmol·min^−1·mg^−1 prot | 0.0 ** nmol·min^−1·mg^−1 prot | 0.84 ± 0.09 nmol·min^−1·mg^−1 prot | 0.22 ± 0.03 nmol·min^−1·nmol^−1 P450 | 0.0 ** nmol·min^−1·mg^−1 prot | 0.0 ** nmol·min^−1·mg^−1 prot | Decay in 30 min (conversion by P450) [4]: 5–10%
4 | CCC1(CC)CC(CN)C(CC)(CC)N1[O] (centres unmarked) [Compound 6, 3-(aminomethyl)-2,2,5,5-tetraethylpyrrolidineyloxyl] | – | – | – | – | – | – | – | – | – | – | – | Decay in liver homogenates (liver homogenates): significantly decayed
5 | CCC1(CC)c2ccc(C(=O)O)cc2C(CC)(CC)N1[O] [Nitroxide 5, 5-carboxy-1,1,3,3-tetraethyl-2-isoindolinyloxyl] | 0.02 ± 0.01 M⁻¹ s⁻¹ | 30% | – | – | not the case | 0.0 *** nmol·min^−1·mg^−1 prot | 0.0 *** nmol·min^−1·mg^−1 prot | 3.4 ± 0.2 nmol·min^−1·mg^−1 prot | 0.88 ± 0.05 nmol·min^−1·nmol^−1 P450 | 0.0 *** nmol·min^−1·mg^−1 prot | 0.0 *** nmol·min^−1·mg^−1 prot | New six-line paramagnetic species formed, share of the initial nitroxide ([4]; 300 μM nitroxide, RLM 30 μM P450, 2 mM NADPH, 21 °C, at 10 min (maximum)): 7%
6 | CC1(C)CC(=O)CC(C)(C)N1[O] [Nitroxide 1, 2,2,6,6-tetramethyl-4-oxo(piperidine-1-yloxyl) radical, reference compound] | 6.9 ± 0.1 M⁻¹ s⁻¹ | 37% | 7.2 ± 0.8 ^a M^−1·s^−1 | 5.75 ± 0.04 M⁻¹ s⁻¹ | 15% | 1.2 ± 0.3 nmol·min^−1·mg^−1 prot | 5.1 ± 0.3 nmol·min^−1·mg^−1 prot | 11.1 ± 0.8 nmol·min^−1·mg^−1 prot | 2.8 ± 0.2 nmol·min^−1·nmol^−1 P450 | 0.0 *** nmol·min^−1·mg^−1 prot | 0.0 *** nmol·min^−1·mg^−1 prot | Initial rate of decrease, + Clo [2, 6]: 4.3 ± 0.4 nmol·min^−1·mg^−1·prot; Initial rate of decrease, + Clo (per P450) [2, 6]: 1.1 ± 0.2 nmol·min^−1·nmol^−1·P450; Initial rate of decrease, +DPI [2, 7]: 2.7 ± 0.3 nmol·min^−1·mg^−1·prot; Initial rate of decrease, +DPI (per P450) [2, 7]: 0.70 ± 0.08 nmol·min^−1·nmol^−1·P450; Initial rate of decrease, WS [2, 8]: 19.3 ± 0.9 nmol·min^−1·mg^−1·prot; Initial rate of decrease, WS (per P450) [2, 8]: 5.0 ± 0.5 nmol·min^−1·nmol^−1·P450; Initial rate of decrease, -NADPH ([2]; without NADPH, nitroxide 100 μM): 0.0 ** nmol·min^−1·mg^−1·prot; Initial rate of decrease, -RLM ([2]; without RLM, nitroxide 100 μM): 0.0 ** nmol·min^−1·mg^−1·prot; Initial second-order reaction rate constant k0 for reduction by excess ascorbate ([3]; ref 57): 6.9 ± 0.7 M⁻¹ s⁻¹; Initial rate of decrease, + Clo (per P450) [4]: 0.30 ± 0.09 nmol·min^−1·nmol^−1 P450; Initial rate of decrease, +DPI (per P450) [4]: 1.31 ± 0.07 nmol·min^−1·nmol^−1 P450
7 | CCC1(CC)CC(CNC(=O)C[P+](c2ccccc2)(c2ccccc2)c2ccccc2)C(CC)(CC)N1[O].[Cl-] (centres unmarked) [Compound 7, 3-(2-triphenylphosphonio)acetamidomethyl-2,2,5,5-tetraethylpyrrolidine-1-oxyl chloride] | – | – | – | – | – | – | – | – | – | – | – | Decay in liver homogenates (liver homogenates): significantly decayed

Reference: article PMC9952648, “Structural Features Governing the Metabolic Stability of Tetraethyl-Substituted Nitroxides in Rat Liver Microsomes” (Antioxidants, 2023)
